Assay results reported in patent US11390609B2, “Rho-associated protein kinase inhibitor, pharmaceutical composition comprising same, and preparation method and use thereof” (BEIJING TIDE PHARMACEUTICAL CO., LTD., priority 2017, dated 2022).

Tests used:
ROCK2 = ROCK2 (Homo sapiens, UniProt O75116); assay: ROCK2 kinase IC50 assay (CISBIO HTRF KinEASE-STK S2 kit); assay type: biochemical; conditions: incubated at room temperature for 2 hours
Summary of the method: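 HTRF KinEASE-STK S2 format with recombinant ROCK2 (1.4 ng per well), STK-S2 substrate and ATP from 5× working solutions of 1.5 μM each, run 2 h at room temperature. Nine-point dilutions from 10000 nM top concentration; 665/615 nm emission ratio normalised to no-compound and no-kinase controls, curve-fitted for IC50.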

ROCK1 = ROCK1 (Homo sapiens (Human), UniProt Q13464); assay: ROCK1 kinase IC50 assay (biological test method similar to the ROCK2 assay); assay type: biochemical
Summary of the method: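 HTRF KinEASE-STK S2 assay with the STK-S2 biotinylated substrate and ATP, at 5× working solutions of 1.5 µM each. Kinase reaction with 9-point compound dilutions ran 2 h at room temperature, followed by 1 h streptavidin-XL665/Cryptate detection. The 665/615 nm ratio was normalised to no-compound and no-kinase wells, and IC50 was obtained by curve fitting.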

Chain of ROCK1 (Q13464 whole entry, species assumed): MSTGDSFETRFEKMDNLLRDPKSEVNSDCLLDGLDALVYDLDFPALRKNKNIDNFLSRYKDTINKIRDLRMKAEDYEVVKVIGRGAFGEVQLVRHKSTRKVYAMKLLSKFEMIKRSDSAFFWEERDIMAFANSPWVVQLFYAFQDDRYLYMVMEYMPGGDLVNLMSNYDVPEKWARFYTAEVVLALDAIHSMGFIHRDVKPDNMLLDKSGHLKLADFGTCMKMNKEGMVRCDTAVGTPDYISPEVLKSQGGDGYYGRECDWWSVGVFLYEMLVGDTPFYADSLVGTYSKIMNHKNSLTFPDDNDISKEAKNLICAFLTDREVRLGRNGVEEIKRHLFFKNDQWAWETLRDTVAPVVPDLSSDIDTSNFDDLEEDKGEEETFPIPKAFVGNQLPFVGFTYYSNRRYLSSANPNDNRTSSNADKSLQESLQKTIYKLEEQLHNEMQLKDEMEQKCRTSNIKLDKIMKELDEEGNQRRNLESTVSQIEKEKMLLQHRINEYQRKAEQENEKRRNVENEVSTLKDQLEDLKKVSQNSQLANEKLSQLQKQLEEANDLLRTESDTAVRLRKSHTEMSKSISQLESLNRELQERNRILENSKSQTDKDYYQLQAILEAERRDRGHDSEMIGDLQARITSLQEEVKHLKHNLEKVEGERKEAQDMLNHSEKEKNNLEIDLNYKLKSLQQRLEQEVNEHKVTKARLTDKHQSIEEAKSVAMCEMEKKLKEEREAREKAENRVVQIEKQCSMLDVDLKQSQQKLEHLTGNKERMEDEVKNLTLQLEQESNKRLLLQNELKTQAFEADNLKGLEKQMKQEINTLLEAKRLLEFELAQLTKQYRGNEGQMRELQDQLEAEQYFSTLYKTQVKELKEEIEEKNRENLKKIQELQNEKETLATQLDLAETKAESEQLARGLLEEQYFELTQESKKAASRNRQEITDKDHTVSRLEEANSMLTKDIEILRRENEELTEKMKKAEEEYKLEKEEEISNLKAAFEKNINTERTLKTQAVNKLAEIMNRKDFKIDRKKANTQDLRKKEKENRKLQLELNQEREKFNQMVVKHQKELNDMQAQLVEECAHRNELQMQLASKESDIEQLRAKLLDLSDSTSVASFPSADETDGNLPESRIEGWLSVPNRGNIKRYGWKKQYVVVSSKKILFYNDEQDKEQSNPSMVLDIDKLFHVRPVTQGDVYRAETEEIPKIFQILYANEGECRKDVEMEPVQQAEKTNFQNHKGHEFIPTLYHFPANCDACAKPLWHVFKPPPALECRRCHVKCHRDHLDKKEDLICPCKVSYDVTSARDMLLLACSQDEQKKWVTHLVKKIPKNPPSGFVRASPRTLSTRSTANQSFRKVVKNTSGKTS

Structure (SMILES)	IC50 (ROCK2) [nM]	IC50 (ROCK1) [nM]
O=C(C1CC(F)(F)C1)N1CCc2cc(-c3ncc(F)c(Nc4ccc(-c5cn[nH]c5)cc4)n3)ccc21 [TDI01618A, (5-(4-((4-(1H-pyrazol-4-yl)phenyl)amino)-5-fluoropyrimidin-2-yl)indolin-1-yl)(3,3-difluorocyclobutyl) methanone]	129	> 10000
O=C(OC1CC(F)(F)C1)N1CCc2cc(-c3nccc(Nc4ccc(-c5cn[nH]c5)cc4)n3)ccc2C1 [TDI01621, 3,3-difluorocyclobutyl 6-(4-((4-(1H-pyrazol-4-yl)phenyl)amino)pyrimidin-2-yl)-3,4-dihydroisoquinoline-2(1H)-carboxylate]	219	> 10000
O=C(OC1CCC(F)(F)CC1)N1CCc2cc(-c3nccc(Nc4ccc(-c5cn[nH]c5)cc4)n3)ccc2C1 [TDI01656, 4,4-difluorocyclohexyl 6-(4-((4-(1H-pyrazol-4-yl)phenyl)amino)pyrimidin-2-yl)-3,4-dihydroisoquinoline-2(1H)-carboxylate]	442	> 10000
CC1(C(=O)N2CCc3ccc(-c4nccc(Nc5ccc(-c6cn[nH]c6)cc5)n4)cc3C2)CC(F)(F)C1 [TDI01676, (7-(4-((4-(1H-pyrazol-4-yl)phenyl)amino)pyrimidin-2-yl)-3,4-dihydroisoquinolin-2(1H)-yl)(3,3-difluoro-1-methylcyclobutyl) methanone]	242	> 10000
Cn1c(C(=O)N2CC(F)(F)C2)cc2ccc(-c3ncc(C(F)(F)F)c(Nc4ccc(-c5cn[nH]c5)cc4)n3)cc21 [TDI01681, (6-(4-((4-(1H-pyrazol-4-yl)phenyl)amino)-5-(trifluoromethyl)pyrimidin-2-yl)-1-methyl-1H-indol-2-yl)(3,3-difluoroazetidin-1-yl)methanone]	238	> 10000
O=C(C1CC(F)(F)C1)N1CCc2cc(-c3nccc(Nc4ccc5[nH]ncc5c4)n3)ccc2C1 [TDI01683, (6-(4-((1H-indazol-5-yl)amino)pyrimidin-2-yl)-3,4-dihydroisoquinolin-2(1H)-yl)(3,3-difluorocyclobutyl)methanone]	360	> 10000
COc1cnc(-c2ccc3cc(C(=O)Nc4ccnnc4)[nH]c3c2)nc1Nc1ccc2[nH]ncc2c1 [TDI01813, 6-(4-((1H-indazol-5-yl)amino)-5-methoxy-pyrimidin-2-yl)-N-(pyridazin-4-yl)-1H-indole-2-carboxamide]	90	> 10000

Molecules with a lower IC50 (ROCK2), results first:

IC50 (ROCK2) [nM]	IC50 (ROCK1) [nM]	Structure (SMILES)
28	> 10000	CC1(C(=O)N2Cc3ccc(-c4ncc(F)c(Nc5ccc(-c6cn[nH]c6)cc5)n4)cc3C2)CC(F)(F)C1 [TDI01628, (5-(4-((4-(1H-pyrazol-4-yl)phenyl)amino)-5-fluoropyrimidin-2-yl)isoindolin-2-yl)(3,3-difluoro-1-methylcyclobutyl) methanone]
16	2040	O=C(OC1CC2(CNC2)C1)N1Cc2ccc(-c3nccc(Nc4ccc(-c5cn[nH]c5)cc4)n3)cc2C1 [TDI01634, 2-azaspiro[3.3]heptan 6-yl 5-(4-((4-(1H-pyrazol-4-yl)phenyl)amino)pyrimidin-2-yl)isoindoline-2-carboxylate]
42	> 10000	COCc1cnc(-c2ccc3cc(C(=O)N4CC(F)(F)C4)n(C)c3c2)nc1Nc1ccc(-c2cn[nH]c2)cc1 [TDI01668, (6-(4-((4-(1H-pyrazol-4-yl)phenyl)amino)-5-(methoxymethyl)pyrimidin-2-yl)-1-methyl-1H-indol-2-yl)(3,3-difluoroazetidin-1-yl)methanone]
84	> 10000	O=C(c1cc2ccc(-c3ncc(F)c(Nc4ccc(-c5cn[nH]c5)cc4)n3)cc2s1)N1CC(F)(F)C1 [TDI01675, (6-(4-((4-(1H-pyrazol-4-yl)phenyl)-amino)-5-fluoro-pyrimidin-2-yl)benzo[b]-thiophen-2-yl)(3,3-difluoroazetidin-1-yl)methanone]
6	159	CC(NC(=O)c1cc2ccc(-c3nccc(Nc4ccc(-c5cn[nH]c5)cc4)n3)cc2n1C)C(F)(F)F (stereo not drawn) [TDI01691]
